Measurements: US9957299B2, “Peptidomimetic macrocycles” (AILERON THERAPEUTICS, INC., priority 2010, dated 2018)
Bridge positions count the residues as written; N and C are the ends. Square brackets hold non-standard residues; d marks the D form. Peptide text beside a SMILES is read from it. * marks the point of attachment. R8 = C=CCCCCCC[C@@](C)(N)C(=O)O; S5 = C=CCCC[C@](C)(N)C(=O)O; X1 = COCCOCCOCCOC(=O)*

Key:
HDMx = HDMx (Homo sapiens, UniProt O15151); assay: FP Competition Blinding Assay | HDMx IC50 (nM)
Sequence of HDMx (O15151 whole entry, looked up): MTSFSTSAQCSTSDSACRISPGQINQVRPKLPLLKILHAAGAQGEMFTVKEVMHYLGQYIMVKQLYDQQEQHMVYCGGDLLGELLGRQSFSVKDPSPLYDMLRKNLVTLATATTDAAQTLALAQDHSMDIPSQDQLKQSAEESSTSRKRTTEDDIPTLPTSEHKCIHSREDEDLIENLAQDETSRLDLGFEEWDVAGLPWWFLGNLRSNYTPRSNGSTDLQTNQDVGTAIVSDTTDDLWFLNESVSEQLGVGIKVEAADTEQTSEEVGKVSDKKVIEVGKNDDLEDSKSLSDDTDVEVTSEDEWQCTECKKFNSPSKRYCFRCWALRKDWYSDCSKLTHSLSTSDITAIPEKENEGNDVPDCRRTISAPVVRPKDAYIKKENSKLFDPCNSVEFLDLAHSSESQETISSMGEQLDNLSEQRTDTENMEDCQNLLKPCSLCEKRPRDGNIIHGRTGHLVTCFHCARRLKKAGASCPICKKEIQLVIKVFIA

HDM2 = HDM2 (Homo sapiens, UniProt Q00987); assay: FP Competition Blinding Assay | HDM2 IC50 (nM)
Sequence of HDM2 (Q00987 whole entry, looked up): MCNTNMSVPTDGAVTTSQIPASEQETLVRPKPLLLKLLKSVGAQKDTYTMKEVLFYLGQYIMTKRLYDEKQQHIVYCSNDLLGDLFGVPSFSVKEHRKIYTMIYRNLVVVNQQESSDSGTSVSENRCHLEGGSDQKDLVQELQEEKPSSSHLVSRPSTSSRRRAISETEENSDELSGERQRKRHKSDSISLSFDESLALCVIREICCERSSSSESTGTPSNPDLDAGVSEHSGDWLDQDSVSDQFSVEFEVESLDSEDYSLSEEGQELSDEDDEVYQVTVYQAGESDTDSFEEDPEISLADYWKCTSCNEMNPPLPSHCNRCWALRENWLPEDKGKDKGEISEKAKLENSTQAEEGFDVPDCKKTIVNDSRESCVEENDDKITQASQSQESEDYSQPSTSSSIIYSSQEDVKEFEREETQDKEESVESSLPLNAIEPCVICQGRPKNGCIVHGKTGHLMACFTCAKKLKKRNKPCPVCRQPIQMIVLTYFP

Row | IC50 (HDMx) | IC50 (HDM2) | SMILES
1 | 97 nM | 74.9 nM | CC(=O)N[C@@H](CC(C)C)C(=O)N[C@H](C(=O)N[C@@H](Cc1ccccc1)C(=O)N[C@]1(C)CCCCCCC=CCCC[C@@](C)(C(=O)N[C@@H](CO)C(N)=O)NC(=O)[C@H](CC(C)C)NC(=O)[C@H](CCC(N)=O)NC(=O)[C@H](C)NC(=O)[C@H](Cc2c[nH]c3ccccc23)NC(=O)[C@H](Cc2ccc(O)cc2)NC(=O)[C@H](C)NC1=O)[C@@H](C)O [SP-191, Ac- L T F $r8 A Y W A Q L $ S -NH2] (Ac-LTF[R8]AYWAQL[S5]S-NH2; staple 4-11)
2 | 195 nM | 81 nM | COCCOCCOCCOC(=O)N[C@@H](CC(C)C)C(=O)N[C@H](C(=O)N[C@@H](Cc1ccccc1)C(=O)N[C@]1(C)CCCCCCC=CCCC[C@@](C)(C(=O)N[C@@H](CO)C(N)=O)NC(=O)[C@H](CC(C)C)NC(=O)[C@H](CCC(N)=O)NC(=O)[C@H](C)NC(=O)[C@H](Cc2c[nH]c3ccccc23)NC(=O)[C@H](Cc2ccc(O)cc2)NC(=O)[C@H](C)NC1=O)[C@@H](C)O [SP-580, mdPEG3-L T F $r8 A Y W A Q L $ S -NH2] (X1-LTF[R8]AYWAQL[S5]S-NH2; staple 4-11)
